The subject of data set [1] is L. minor. The conditions noted are these: cited from earlier work.
The subject of data set [2] is V. fischeri. The conditions noted are these: cited from earlier work.
Data set [3] has as its system Daphnia magna. As to the kind of experiment: D. magna acute immobilization test. It is filed as in vivo. The conditions noted are these: Daphnia magna; for EC50: immobilization, 48 h, read-out: EC50 D. magna (with confidence interval 2.5–97.5%); for mortality at 60 µg/mL: concentration 60 mg L^−1. The protocol:
(§1) All tests were carried out in accordance with the OECD or ISO guidelines. In general the experimental part was divided into three main steps: (i) determination of the toxicity of the native forms of pharmaceuticals (their racemic mixtures), (ii) toxicity evaluation of the selected TPs of these pharmaceuticals, and (iii) preliminary toxicity assessment of the enantiomers of selected pharmaceuticals. For each assay, range-finding tests were conducted, in order to determine the range of concentrations for the definitive tests. The main tests were repeated three times in at least two parallel replicates, with a minimum of five concentrations for native forms of the selected pharmaceuticals (including their enantiomers). The exact number of replicates and concentrations tested was included in the description of each test. […] However, TPs were tested in a different manner; first, the tests were carried out at the limit concentration of 100 mg L^−1. […] Such approach was applied in order to observe the relative toxicity of the selected TP and its native form.
(§2) Dose-response curves were fitted using a linear logistic or logistic model (the model giving the best fit was chosen) (https://cran.r-project.org/web/packages/drfit/drfit.pdf). The mathematic formulas applied for this purpose are presented and described in the Supplementary Material. The EC50 values were given since log EC50 is a model parameter in the logistic as well as in linear logistic model.
Five pre-fed test organisms were incubated with the studied compounds diluted in 10 mL of test media in glass test vessels at 20 °C (± 1 °C) in darkness for 48 h. Each test consisted of a control and five different concentrations of the studied compound in four parallel replicates. In order to achieve a full dose-response relationship, the concentration series covered the range of 0–100% immobilization. The number of immobilized or dead organisms was checked after 24 and 48 h. The negative effect of exposure to the tested compounds was expressed by the number of immobilized organisms compared to the controls.

Data set [4] has as its system algae. The conditions noted are these: cited from earlier work.
Data set [5] has as its system aquatic organisms.
Data set [6] relates to Lemna minor. Kind of data set: L. minor growth inhibition test. The conditions noted are these: Lemna minor; for EC50: 168 h, read-out: EC50 L. minor (with confidence interval 2.5–97.5%), growth rate inhibition by frond area, 7 days. The protocol: as §1, §2
One week before the assay, the inoculum cultures were prepared; eight healthy plants were placed into a new portion of the medium. Two days before the test, the plants were transferred to a fresh medium, in order to supplement nutrients and to eliminate plant metabolites. The experiments were performed in six-well plates under the conditions described above. The pH value of the Steinberg medium and all solutions was 5.5 (± 0.5). Every test included six different concentrations of compound and six controls in three replicates. The test started with one plant consisting of three fronds and the measured endpoint was the inhibition of growth rate determined by comparing the frond area (mm^2) for the treated plants and untreated controls.

The subject of data set [7] is duckweed. The conditions noted are these: ref Cleuvers 2003; cited from earlier work.
Data set [8] concerns Vibrio fischeri. As to the kind of experiment: microbe, parasite or virus in culture. It counts as cell-based. The conditions noted are these: Aliivibrio fischeri; for EC50: 0.5 h, read-out: EC50 V. fischeri (with confidence interval 2.5–97.5%). The procedure: (§3) Stock solutions and dilutions were prepared in 2% NaCl in 0.02 M phosphate buffer, pH 7. The freeze-dried bacteria were rehydrated prior to testing in a reactivation solution. Culture suspensions and diluted samples were pre-incubated at 15 °C for 15 min. After the initial luminescence was measured, 0.5 mL of the culture suspension was mixed with the same volume of a diluted sample. The final bioluminescence was measured after 30 min. Incubation was kept at 15 °C (LUMIStox 300 meter, Dr. Lange GmbH, Berlin, Germany). The relative toxicity of the samples was expressed as a percentage of luminescence inhibition compared to the controls.
as §3, with “m,” for “meter,”

The subject of data set [9] is Raphidocelis subcapitata. As to the kind of experiment: R. subcapitata reproduction (growth) inhibition test. It is filed as cell-based. The conditions noted are these: Raphidocelis subcapitata. The protocol: as §1, §2
Test organisms were provided from Algal Culture Collection (Universität Göttingen, Germany). […] The light-dark cycle was different from the OECD guidelines, and it was introduced to imitate natural growth conditions. In order to ensure that the algae are in the exponential growth phase when used to inoculate the test solutions, the stock culture was diluted three times a week. The test was carried out in 25 mL suspension cell culture flasks (Nunc) (working volume 10 mL). All operations were performed under sterile conditions. The initial cell concentration was 5 × 10^4 cells mL^−1. Eight different concentrations of every compound in three replicates and a minimum of six controls were used in each test. […] The test flasks were incubated on a shaker with a speed of approx. 75 rpm at the temperature and light conditions described above. Growth inhibition was calculated using the cell counts of the treated samples in relation to the untreated controls after 72 h of exposure. The cells were counted with the use of CASY TT Cell counter & analyzer.

For data set [10], the system named is Arthrobacter globiformis. As to the kind of experiment: A. globiformis dehydrogenase inhibition test (version without soil). The conditions noted are these: for EC50: read-out: EC50 A. globiformis; for inhibition at 100 µg/mL: read-out: inhibition of bacterial growth (A. globiformis). The protocol: as §1
The test strain was obtained from the German Collection of Microorganisms (DSMZ). A version of the test without soil was performed. Bacteria was grown in a sterile medium containing 10 g L^−1 peptone from casein, 5 g L^−1 yeast extract, 5 g L^−1 glucose, and 5 g L^−1 NaCl. For the test, the medium was diluted in a ratio of 1:3 in water. The inoculum was the bacteria in a log-growth phase. Cell density was adjusted to 1 × 10^8 cells mL^−1, which corresponds to an optical density (OD600nm) of 0.4. The test was performed in 24-well microplates. Each well contained 1 mL of solution of the tested compound in water and 1 mL of bacterial inoculum. Next, the plates were incubated for 2 h at 30 °C on a horizontal shaker with a speed of 100 rpm. To each well, a portion of 0.6 mL of the redox active dye resazurine (45 mg L^−1) dissolved in buffer was added. The microplates were further incubated for 1 h (30 °C, 100 rpm). To stop the reduction process, the plates were centrifuged at 3600g for 10 min. Aliquots (300 μl) of supernatant from each well were immediately transferred to the wells of a 96-well microplate in triplicates. Finally, the dehydrogenase activity was determined by measuring the formation of resorufin from resazurine using a fluorimeter ([…]). Dehydrogenase inhibition was calculated using Eq. 1.
where FBTS is the measured fluorescence of the blank (medium) with the tested substance, FTS is the measured fluorescence of the sample, FBNC is the measured fluorescence of the blank, and FNC is the measured fluorescence of the negative control (with bacteria).

[11] abbreviates: ref US Food and Drug Administration 1996.
[12] abbreviates: for the organisms named in the sentence.
The mark [13] stands for this setting: luminescence inhibition, 30 min, 15 °C.
Setting [14] is: read-out: Growth inhibition of L. minor.

Consider 5 compounds from publication PMC7332481, “Ecotoxicity screening evaluation of selected pharmaceuticals and their transformation products towards various organisms” (Environmental Science and Pollution Research International, 2020).

One may read the EC50 as the concentration that produces a half-maximal response. As usually defined, the inhibition is the relative decrease from the control value, in per cent.

Each structure is given as a SMILES string. Converted amounts (≈) assume the structure as drawn. Like-named read-outs stand apart in the source and are kept apart here.

Turning to `COc1cccc(C2(O)CCCCC2CN(C)C)c1` (centres unmarked) [TRA, Tramadol], the “toxicity to L. minor” value in data set [1] (setting [11]) is on record as “not toxic”. Besides, the “toxic effect towards V. fischeri” value in [2] (at the concentration of 100 mg L^−1, ref Romanucci et al. (2019)) was “did not observed any toxic effect”. In data set [2] (setting [11]), the “toxicity to V. fischeri” value is reported as “not toxic”. For the same compound, the mortality at 70 µg/mL in data set [3] (read-out: Immobilization) was 44%.
As for `COc1ccc2cc([C@H](C)C(=O)O)ccc2c1` [NAP, Naproxen], the “EC50, 72h algae” value in data set [4] (72 h, ref Minguez et al. 2016) was 44.40 µg/mL (≈ 193 µM). For the same compound, the “EC50, 96h algae” value in data set [4] (96 h, ref Isidori et al. 2005b) is 31.82 µg/mL (≈ 138 µM). For the same compound, the “classification on the basis of EC50 values (EC 93/67/EEC)” value (“classification on the basis” below) in data set [5] (setting [12]) is reported as “harmful”. Further, the EC50 is 20.7 µg/mL (≈ 89.9 µM) in [6]; 74.4 µg/mL (≈ 323 µM) in data set [3]; 25.2 µg/mL (≈ 109 µM) in [8] (setting [13]); 27.1 µg/mL (≈ 118 µM) in [9] (72 h, growth inhibition by cell counts, 72 h, read-out: EC50 R. subcapitata (with confidence interval 2.5–97.5%)); over 100 µg/mL in [10]. Further, in [7], the EC50 duckweed is 24 µg/mL (≈ 104 µM). The mortality at 70 µg/mL in [3] (concentration 70 mg L^−1, read-out: Immobilization) was 32%. For the same compound, the inhibition at 25 µg/mL in [8] (concentration 25 mg L^−1, read-out: Luminescence inhibition) was 51%.
Consider `O=C(O)Cc1ccccc1Nc1c(Cl)cccc1Cl` [DIC, Diclofenac], for which, in data set [5], the “classification on the basis” value is recorded as “harmful”. Moreover, in data set [1] (ref Quinn et al. (2011)), the “EC50 L. minor” value was 47.6 µg/mL (≈ 161 µM). Also, the half-maximal effective concentration (EC50) in [6] is 16.5 µg/mL (≈ 55.8 µM); in data set [3], 59.1 µg/mL (≈ 200 µM); in [8], 11.6 µg/mL (≈ 39.2 µM); in data set [10], over 100 µg/mL. In addition, in data set [6] (setting [14]), the inhibition at 15 µg/mL came to 33%. This compound also came in with a mortality at 60 µg/mL in data set [3] of 50%. The inhibition at 10 µg/mL in data set [8] (read-out: Luminescence inhibition) came to 45%. Besides, the inhibition at 100 µg/mL in data set [10] came to 30%.
As for `Cc1cc(NS(=O)(=O)c2ccc(N)cc2)no1` [SMZ, Sulfamethoxazole], the “classification on the basis” value in data set [5] (setting [12]) is given as “toxic to aquatic organisms (1–10 mg L^−1 are “toxic to aquatic organisms”)”. Besides, the inhibition at 3 µg/mL in [6] (setting [14]) was found to be 49%. Besides, the mortality at 40 µg/mL in data set [3] (concentration 40 mg L^−1, read-out: Immobilization) was determined as 48%. Further, the results for the concentration for a half-maximal effect (EC50) in [3], in data set [8] (setting [13]) and in data set [10] were 42.7 µg/mL (≈ 169 µM), 51.8 µg/mL (≈ 204 µM) and over 100 µg/mL, respectively. Moreover, the inhibition at 50 µg/mL in data set [8] (concentration 50 mg L^−1, read-out: Luminescence inhibition) was 46%. The inhibition at 5 µg/mL in data set [9] (concentration 5 mg L^−1, read-out: Growth inhibition of R. subcapitata) turned out to be 43%.
As to `O=C(O)Cc1ccccc1Nc1c(Cl)cc(O)cc1Cl` [4-OH-DIC, 4☒Hydroxydiclofenac], the inhibition at 15 µg/mL in [6] (setting [14]) amounted to 0%. Further, the mortality at 60 µg/mL in data set [3] was 8%. In addition, the inhibition at 10 µg/mL in data set [8] (concentration 10 mg L^−1, read-out: Luminescence inhibition) was 38%. The inhibition at 50 µg/mL in data set [9] (concentration 50 mg L^−1) was found to be 45%. Also, in data set [10], the inhibition at 100 µg/mL was 14%.
